# Assay results from PubChem BioAssay AID1963839 (Molecular Pharmacology Branch, DTP, NCI, 2024).
# Tested on: 817829-284-R-J1-PDC complex spheroid viability
# Experiment: Anticancer human tumor 817829-284-R-J1-PDC patient-derived colon adenocarcinoma cell line growth inhibition [POLQ]
# Settings: for IC50: curve of first compound; for viability, T/C: stronger effect = lower value
# Method in brief: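 Three-cell-type spheroids modelling solid tumor plus stroma served as the readout system; POL inhibitors were tested individually and in combination, concentration ranges set by clinical Cmax where known.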
# [1] = second compound 0.0316 µM, first compound 0.0316 µM
# [2] = second compound 0.0316 µM, first compound 0.1 µM
# [3] = second compound 0.0316 µM, first compound 0.316 µM
# [4] = second compound 0.0316 µM, first compound 1 µM
# [5] = second compound 0.0316 µM, first compound 3.16 µM
# [6] = second compound 0.0316 µM, first compound 10 µM
# [7] = second compound 0.1 µM, first compound 0.0316 µM
# [8] = second compound 0.1 µM, first compound 0.1 µM
# [9] = second compound 0.1 µM, first compound 0.316 µM
# [10] = second compound 0.1 µM, first compound 1 µM
# [11] = second compound 0.1 µM, first compound 3.16 µM
# [12] = second compound 0.1 µM, first compound 10 µM
# [13] = second compound 0.316 µM, first compound 0.0316 µM
# [14] = second compound 0.316 µM, first compound 0.1 µM
# [15] = second compound 0.316 µM, first compound 0.316 µM
# [16] = second compound 0.316 µM, first compound 1 µM
# [17] = second compound 0.316 µM, first compound 3.16 µM
# [18] = second compound 0.316 µM, first compound 10 µM
# [19] = second compound 1 µM, first compound 0.0316 µM
# [20] = second compound 1 µM, first compound 0.1 µM
# [21] = second compound 1 µM, first compound 0.316 µM
# [22] = second compound 1 µM, first compound 1 µM
# [23] = second compound 1 µM, first compound 3.16 µM
# [24] = second compound 1 µM, first compound 10 µM
# [25] = second compound 3.16 µM, first compound 0.0316 µM
# [26] = second compound 3.16 µM, first compound 0.1 µM
# [27] = second compound 3.16 µM, first compound 0.316 µM
# [28] = second compound 3.16 µM, first compound 1 µM
# [29] = second compound 3.16 µM, first compound 3.16 µM
# [30] = second compound 3.16 µM, first compound 10 µM
# [31] = second compound 10 µM, first compound 0.0316 µM
# [32] = second compound 10 µM, first compound 0.1 µM
# [33] = second compound 10 µM, first compound 0.316 µM
# [34] = second compound 10 µM, first compound 1 µM
# [35] = second compound 10 µM, first compound 3.16 µM
# [36] = second compound 10 µM, first compound 10 µM
# 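Further: spheroids exposed to compounds for 7 days.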
# 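Wherever viability, T/C is given: 100% = DMSO vehicle-treated spheroids.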
smiles,measurement,setting,value
CCCS(=O)(=O)Nc1ccc(F)c(C(=O)c2c[nH]c3ncc(-c4ccc(Cl)cc4)cc23)c1F + Nc1ccc(C#CCN(C(=O)Cc2ncc(C(F)(F)F)cc2C(F)(F)F)c2ccc(F)cc2)nn1,IC50,second compound 0.0316 µM,4470 nM
same,IC50,second compound 0.1 µM,4540 nM
same,IC50,second compound 0.316 µM,3460 nM
same,IC50,second compound 1 µM,3750 nM
same,IC50,second compound 3.16 µM,4490 nM
same,IC50,second compound 10 µM,3680 nM
same,"viability, T/C",[1],90%
same,"viability, T/C",[2],75.5%
same,"viability, T/C",[3],93.2%
same,"viability, T/C",[4],91.3%
same,"viability, T/C",[5],67.2%
same,"viability, T/C",[6],9.94%
same,"viability, T/C",[7],90.4%
same,"viability, T/C",[8],55.9%
same,"viability, T/C",[9],81.7%
same,"viability, T/C",[10],74.7%
same,"viability, T/C",[11],68.2%
same,"viability, T/C",[12],10.4%
same,"viability, T/C",[13],85%
same,"viability, T/C",[14],85.4%
same,"viability, T/C",[15],83.2%
same,"viability, T/C",[16],75.8%
same,"viability, T/C",[17],53.2%
same,"viability, T/C",[18],11.5%
same,"viability, T/C",[19],84%
same,"viability, T/C",[20],76.7%
same,"viability, T/C",[21],88.2%
same,"viability, T/C",[22],66.3%
same,"viability, T/C",[23],58.6%
same,"viability, T/C",[24],13.9%
same,"viability, T/C",[25],95.2%
same,"viability, T/C",[26],62.6%
same,"viability, T/C",[27],78.7%
same,"viability, T/C",[28],84.2%
same,"viability, T/C",[29],66.1%
same,"viability, T/C",[30],13.2%
same,"viability, T/C",[31],88.9%
same,"viability, T/C",[32],64.8%
same,"viability, T/C",[33],75.8%
same,"viability, T/C",[34],75.9%
same,"viability, T/C",[35],55.6%
same,"viability, T/C",[36],13.6%
COc1ccc([C@@H](O)c2cc(-c3ncnc4cc(N5CCOCC5)ccc34)c(F)cc2Cl)nn1 + Nc1ccc(C#CCN(C(=O)Cc2ncc(C(F)(F)F)cc2C(F)(F)F)c2ccc(F)cc2)nn1,IC50,second compound 0.0316 µM,1190 nM
same,IC50,second compound 0.1 µM,701 nM
same,IC50,second compound 0.316 µM,1190 nM
same,IC50,second compound 1 µM,925 nM
same,IC50,second compound 3.16 µM,1120 nM
same,IC50,second compound 10 µM,460 nM
same,"viability, T/C",[1],109%
same,"viability, T/C",[2],85.4%
same,"viability, T/C",[3],85%
same,"viability, T/C",[4],52%
same,"viability, T/C",[5],28.9%
same,"viability, T/C",[6],17.7%
same,"viability, T/C",[7],121%
same,"viability, T/C",[8],89.8%
same,"viability, T/C",[9],63.5%
same,"viability, T/C",[10],42.4%
same,"viability, T/C",[11],33.9%
same,"viability, T/C",[12],23.3%
same,"viability, T/C",[13],96.8%
same,"viability, T/C",[14],83.2%
same,"viability, T/C",[15],77.9%
same,"viability, T/C",[16],55.3%
same,"viability, T/C",[17],27.9%
same,"viability, T/C",[18],20.7%
same,"viability, T/C",[19],98.3%
same,"viability, T/C",[20],86.8%
same,"viability, T/C",[21],71.8%
same,"viability, T/C",[22],46.5%
same,"viability, T/C",[23],32.1%
same,"viability, T/C",[24],19.1%
same,"viability, T/C",[25],103%
same,"viability, T/C",[26],86%
same,"viability, T/C",[27],65%
same,"viability, T/C",[28],55.2%
same,"viability, T/C",[29],34.2%
same,"viability, T/C",[30],20.9%
same,"viability, T/C",[31],106%
same,"viability, T/C",[32],74.3%
same,"viability, T/C",[33],56.5%
same,"viability, T/C",[34],39.1%
same,"viability, T/C",[35],28.5%
same,"viability, T/C",[36],16%
Cn1ncnc1[C@H]1c2n[nH]c(=O)c3cc(F)cc(c23)N[C@@H]1c1ccc(F)cc1 + Nc1ccc(C#CCN(C(=O)Cc2ncc(C(F)(F)F)cc2C(F)(F)F)c2ccc(F)cc2)nn1,IC50,second compound 0.0316 µM,38.9 nM
same,IC50,second compound 0.1 µM,43.5 nM
same,IC50,second compound 0.316 µM,21.4 nM
same,IC50,second compound 1 µM,37.5 nM
same,IC50,second compound 3.16 µM,48.9 nM
same,IC50,second compound 10 µM,26.5 nM
same,"viability, T/C","second compound 0.0316 µM, first compound 0.000316 µM",97.7%
same,"viability, T/C","second compound 0.0316 µM, first compound 0.001 µM",82.9%
same,"viability, T/C","second compound 0.0316 µM, first compound 0.00316 µM",85%
same,"viability, T/C","second compound 0.0316 µM, first compound 0.01 µM",63.8%
same,"viability, T/C",[1],55.5%
same,"viability, T/C",[2],35%
same,"viability, T/C","second compound 0.1 µM, first compound 0.000316 µM",79.9%
same,"viability, T/C","second compound 0.1 µM, first compound 0.001 µM",89.2%
same,"viability, T/C","second compound 0.1 µM, first compound 0.00316 µM",76.1%
same,"viability, T/C","second compound 0.1 µM, first compound 0.01 µM",69.5%
same,"viability, T/C",[7],58.7%
same,"viability, T/C",[8],30.9%
same,"viability, T/C","second compound 0.316 µM, first compound 0.000316 µM",107%
same,"viability, T/C","second compound 0.316 µM, first compound 0.001 µM",92.5%
same,"viability, T/C","second compound 0.316 µM, first compound 0.00316 µM",64.8%
same,"viability, T/C","second compound 0.316 µM, first compound 0.01 µM",64.2%
same,"viability, T/C",[13],47.4%
same,"viability, T/C",[14],31.7%
same,"viability, T/C","second compound 1 µM, first compound 0.000316 µM",94.8%
same,"viability, T/C","second compound 1 µM, first compound 0.001 µM",93.2%
same,"viability, T/C","second compound 1 µM, first compound 0.00316 µM",69.2%
same,"viability, T/C","second compound 1 µM, first compound 0.01 µM",65.6%
same,"viability, T/C",[19],55.2%
same,"viability, T/C",[20],37.1%
same,"viability, T/C","second compound 3.16 µM, first compound 0.000316 µM",87.3%
same,"viability, T/C","second compound 3.16 µM, first compound 0.001 µM",93.8%
same,"viability, T/C","second compound 3.16 µM, first compound 0.00316 µM",63.9%
same,"viability, T/C","second compound 3.16 µM, first compound 0.01 µM",67.4%
same,"viability, T/C",[25],58%
same,"viability, T/C",[26],41%
same,"viability, T/C","second compound 10 µM, first compound 0.000316 µM",107%
same,"viability, T/C","second compound 10 µM, first compound 0.001 µM",80.1%
same,"viability, T/C","second compound 10 µM, first compound 0.00316 µM",80.5%
same,"viability, T/C","second compound 10 µM, first compound 0.01 µM",61.6%
same,"viability, T/C",[31],49.7%
same,"viability, T/C",[32],32.4%
